Results: ChEMBL document CHEMBL4414677, “Albanitriles A-G: Antiprotozoal Polyacetylene Nitriles from a Mycale Marine Sponge” (J Nat Prod, 2019)
Converted amounts (≈) assume the structure as drawn.

Assays:
Candida albicans = assay: Antifungal activity against Candida albicans ATCC 10231 assessed as fungal growth inhibition measured after 48 hrs by bromocresol green dye based assay; format: functional
Giardia intestinalis = assay: Antiprotozoal activity against Giardia duodenalis 713 assessed as protozoal growth inhibition measured after 96 hrs under anaerobic conditions; format: functional; details: Giardia duodenalis, 713, 96 h
[1] = Cytotoxicity against human NFF cells assessed as cell growth inhibition measured after 96 hrs by resazurin assay; format: cell-based; details: read-out: MIC
Bacillus spizizenii = assay: Antibacterial activity against Bacillus subtilis ATCC 6633 assessed as bacterial growth inhibition measured after 48 hrs by resazurin assay; format: functional; details: ATCC 6633, 48 h
Escherichia coli = assay: Antibacterial activity against Escherichia coli ATCC 25922 assessed as bacterial growth inhibition measured after 48 hrs by resazurin assay; format: functional; details: ATCC 25922, 48 h
[2] = Cytotoxicity against mouse NS1 cells assessed as cell growth inhibition measured after 96 hrs by resazurin assay; format: cell-based; details: read-out: MIC
Tritrichomonas foetus = assay: Antiprotozoal activity against Tritrichomonas foetus KV1 assessed as protozoal growth inhibition measured after 72 hrs under anaerobic conditions; format: functional; details: KV1, 72 h

Molecule: N#CCCCCC#CC#CC#CCCCCCC#N
- MIC (Candida albicans; ATCC 10231, 48 h): > 400 µM
- MIC (Giardia intestinalis): 25 µM (≈ 6.26 µg/mL)
- MCC at 96 h [1]: 100 µM
- MIC (Bacillus spizizenii): > 400 µM
- MIC (Escherichia coli): > 400 µM
- MCC at 96 h [2]: 50 µM
- MIC (Tritrichomonas foetus): 200 µM (≈ 50.1 µg/mL)

Molecule: Cc1ncc([N+](=O)[O-])n1CCO [METRONIDAZOLE]
- MIC (Giardia intestinalis): 2.9 µM (≈ 0.496 µg/mL)
- MIC (Tritrichomonas foetus): 1.2 µM (≈ 0.205 µg/mL)

Molecule: CN(C)[C@@H]1C(O)=C(C(N)=O)C(=O)[C@@]2(O)C(O)=C3C(=O)c4c(O)cccc4[C@@](C)(O)[C@H]3C[C@@H]12 [TETRACYCLINE]
- MIC (Bacillus spizizenii): 0.9 µM (≈ 0.4 µg/mL)
- MIC (Escherichia coli): 14 µM (≈ 6.22 µg/mL)

Molecule: NYSTATIN
- MIC (Candida albicans): 1.7 µM

Molecule: CSC[S@+]([O-])C[C@H](CO)NC(=O)/C=C/c1c(C)[nH]c(=O)[nH]c1=O
- MCC at 96 h [1]: 1.7 µM
- MCC at 96 h [2]: 0.55 µM

Molecule: N#CCCCCC#CC#CC#CCCCCCC=O
- MIC (Candida albicans; ATCC 10231, 48 h): > 400 µM
- MIC (Giardia intestinalis): 400 µM (≈ 101 µg/mL)
- MCC at 96 h [1]: 50 µM
- MIC (Bacillus spizizenii): 400 µM (≈ 101 µg/mL)
- MIC (Escherichia coli): > 400 µM
- MCC at 96 h [2]: 100 µM
- MIC (Tritrichomonas foetus): 200 µM (≈ 50.7 µg/mL)

Molecule: N#CCCCCC#CC#CC#CCCCCCCC#N
- MIC (Candida albicans; ATCC 10231, 48 h): > 400 µM
- MIC (Giardia intestinalis): 12 µM (≈ 3.17 µg/mL)
- MCC at 96 h [1]: 100 µM
- MIC (Bacillus spizizenii): 400 µM (≈ 106 µg/mL)
- MIC (Escherichia coli): > 400 µM
- MCC at 96 h [2]: 50 µM
- MIC (Tritrichomonas foetus): 190 µM (≈ 50.2 µg/mL)

Molecule: N#CCCCCC#CC#CC#CCCCCCC(O)C#N (stereo not given)
- MIC (Candida albicans; ATCC 10231, 48 h): > 360 µM
- MIC (Giardia intestinalis): 90 µM (≈ 25.2 µg/mL)
- MCC at 96 h [1]: 90 µM
- MIC (Bacillus spizizenii): 90 µM (≈ 25.2 µg/mL)
- MIC (Escherichia coli): > 360 µM
- MCC at 96 h [2]: 180 µM
- MIC (Tritrichomonas foetus): > 360 µM
